Values of other authors in PubChem BioAssay AID1259410 (Chemical Carcinogenesis Research Information System (CCRIS), 2018).

Test system: rodent tumor promotion studies, tumor incidence
Test: CCRIS tumor promotion studies

Which outcome (Carcinogen: DIETHYLNITROSAMINE, 55-18-5, N-METHYL-N-NITROSOUREA, 684-93-5, DIHYDROXY-DI-N-PROPYLNITROSAMINE, 53069-64-6, Carcinogen: DIETHYLNITROSAMINE, 55-18-5, N-METHYL-N-NITROSOUREA, 684-93-5, DIHYDROXY-DI-N-PROPYLNITROSAMINE, 53069-64-6, Doses [Carcinogen]: 100 MG/KG BW DEN ONCE THEN 20 MG/KG BW MNU ONCE ON DAYS 5, 8, 11, AND 14 FOLLOWED BY 0.1% DHEN IN DRINKING WATER FOR 2 W, Doses [Promoter]: 0, 0.25% IN DIET FOR 20 WK BEGINNING POST CARCINOGEN TREATMENT (STUDY DURATION: 52 WK), Route [Carcinogen]: INTRAPERITONEAL, INTRAPERITONEAL, ORAL, Route [Carcinogen]: INTRAPERITONEAL, INTRAPERITONEAL, ORAL, Route [Promoter]: ORAL, Species: RAT, Strain/Sex: SPRAGUE-DAWLEY/MALE) does the source give for `OCc1c[nH]c2ccccc12` here?
Its outcome is “thyroid gland: follicular cell adenoma or carcinoma”.

And the outcome (Carcinogen: DIETHYLNITROSAMINE, 55-18-5, N-METHYL-N-NITROSOUREA, 684-93-5, DIHYDROXY-DI-N-PROPYLNITROSAMINE, 53609-64-6, Carcinogen: DIETHYLNITROSAMINE, 55-18-5, N-METHYL-N-NITROSOUREA, 684-93-5, DIHYDROXY-DI-N-PROPYLNITROSAMINE, 53609-64-6, Doses [Carcinogen]: 100 MG/KG BW DEN ONCE, 20 MG/KG BW MNU 2/WK FOR 2 WK, THEN 0.1% DHPN IN DRINKING WATER FOR 2 WK, Doses [Promoter]: O, 0.25% IN DIET FOR 20 WK BEGINNING POST CARCINOGEN TREATMENT (STUDY DURATION: 52 WK), Route [Carcinogen]: INTRAPERITONEAL, INTRAPERITONEAL, ORAL, Route [Carcinogen]: INTRAPERITONEAL, INTRAPERITONEAL, ORAL, Route [Promoter]: ORAL, Species: RAT, Strain/Sex: SPRAGUE-DAWLEY/MALE)?
Its outcome is “thyroid gland: adenoma and adenocarcinoma”.

And the outcome (Doses [Carcinogen]: 0.5 PPM FOR 30 MIN, Doses [Promoter]: 0, 1000 PPM IN DIET BEGINNING 14 WK POST CARCINOGEN DOSE (STUDY DURATION: 12 MO), Route [Carcinogen]: IMMERSION, Route [Promoter]: ORAL, Species: FISH, Strain/Sex: RAINBOW TROUT)?
Its outcome is “liver: tumor”.

What about the outcome (Doses [Carcinogen]: 12.5 PPB IN WATER FOR 30 MIN, Doses [Promoter]: 0, 2000 PPM IN DIET BEGINNING 4 WK POST CARCINOGEN DOSE AND CONTINUING FOR DURATION OF STUDY (STUDY DURATION: 36 WK), Route [Carcinogen]: IMMERSION, Route [Promoter]: ORAL, Species: FISH, Strain/Sex: RAINBOW TROUT) of the same compound?
Its outcome is “liver: tumor”.

And the outcome (Doses [Carcinogen]: 12.5 PPB IN WATER FOR 30 MIN, Doses [Promoter]: 0, 2000 PPM IN DIET BEGINNING 12 WK POST CARCINOGEN DOSE AND CONTINUING FOR 12 WK FOLLOWED BY CONTROL DIET FOR 12 WK (ST, Route [Carcinogen]: IMMERSION, Route [Promoter]: ORAL, Species: FISH, Strain/Sex: RAINBOW TROUT)?
Its outcome is “liver: tumor”.

And the outcome (Doses [Carcinogen]: 12.5 PPB IN WATER FOR 30 MIN, Doses [Promoter]: 0, 2000 PPM IN DIET BEGINNING 12 WK POST CARCINOGEN DOSE AND CONTINUING FOR DURATION OF STUDY (STUDY DURATION: 36 WK), Route [Carcinogen]: IMMERSION, Route [Promoter]: ORAL, Species: FISH, Strain/Sex: RAINBOW TROUT)?
The outcome was “liver: tumor”.

What about the outcome (Doses [Carcinogen]: 12.5 PPB IN WATER FOR 30 MIN, Doses [Promoter]: 0, 2000 PPM IN DIET FOR 24 WK BEGINNING POST CARCINOGEN DOSE (STUDY DURATION: 36 WK), Route [Carcinogen]: IMMERSION, Route [Promoter]: ORAL, Species: FISH, Strain/Sex: RAINBOW TROUT) of the same compound?
Its outcome is “liver: tumor”.

And the outcome (Doses [Carcinogen]: 12.5 PPB IN WATER FOR 30 MIN, Doses [Promoter]: 0, 2000 PPM IN DIET FOR 36 WK BEGINNING POST CARCINOGEN DOSE (STUDY DURATION: 36 WK), Route [Carcinogen]: IMMERSION, Route [Promoter]: ORAL, Species: FISH, Strain/Sex: RAINBOW TROUT)?
Its outcome is “liver: tumor”.

And the outcome (Doses [Carcinogen]: 50-250 PPM IN WATER FOR 30 MIN, Doses [Promoter]: 0, 500, 750, 1000, 1250 PPM IN DIET BEGINNING 3 MO POST CARCINOGEN TREATMENT (STUDY DURATION: 13 MO), Doses [Promoter]: 0, 500, 750, 1000, 1250 PPM IN DIET BEGINNING 3 MO POST CARCINOGEN TREATMENT (STUDY DURATION: 13 MO), Route [Carcinogen]: IMMERSION, Route [Promoter]: ORAL, Species: FISH, Strain/Sex: RAINBOW TROUT/MALE, FEMALE)?
The outcome was “liver: tumor”.

And the outcome (Doses [Carcinogen]: 50 PPB IN WATER FOR 30 MIN, Doses [Promoter]: 0, 2000 PPM IN DIET BEGINNING POST CARCINOGEN DOSE AND ADMINISTERED 2 D/WK FOR DURATION OF STUDY (STUDY DURATION: 36 WK), Route [Carcinogen]: IMMERSION, Route [Promoter]: ORAL, Species: FISH, Strain/Sex: RAINBOW TROUT)?
Its outcome is “liver: tumor”.

And the outcome (Doses [Carcinogen]: 50 PPB IN WATER FOR 30 MIN, Doses [Promoter]: 0, 2000 PPM IN DIET BEGINNING POST CARCINOGEN DOSE AND ADMINISTERED FOR 1 WK ALTERNATING WEEKLY WITH CONTROL DIET (STUDY, Route [Carcinogen]: IMMERSION, Route [Promoter]: ORAL, Species: FISH, Strain/Sex: RAINBOW TROUT)?
Its outcome is “liver: tumor”.

For `[Cl][Zn][Cl]`, which outcome (Carcinogen: URETHANE, 51-79-6, Doses [Carcinogen]: 1.5 MG/G ONCE, Doses [Promoter]: 0, 50, 200, 500 UG/ML IN DEIONIZED DRINKING WATER BEGINNING 3 WK PRIOR TO CARCINOGEN DOSE AND CONTINUING FOR 12 WK POST, Doses [Promoter]: 0, 50, 200, 500 UG/ML IN DEIONIZED DRINKING WATER BEGINNING 3 WK PRIOR TO CARCINOGEN DOSE AND CONTINUING FOR 12 WK POST, Route [Carcinogen]: INTRAPERITONEAL, Route [Promoter]: ORAL, Species: MOUSE, Strain/Sex: SWISS/FEMALE) is on record?
Its outcome is “lung: adenoma”.

With `COc1cccc(O)c1O` as the compound, how does the outcome (Carcinogen: DIETHYLNITROSAMINE, 55-18-5, N-METHYL-N-NITROSOUREA, 684-93-5, 1,2-DIMETHYLHYDRAZINE, 540-73-8, N-BUTYL-N-(4-HYDRO, Carcinogen: DIETHYLNITROSAMINE, 55-18-5, N-METHYL-N-NITROSOUREA, 684-93-5, 1,2-DIMETHYLHYDRAZINE, 540-73-8, N-BUTYL-N-(4-HYDRO, Doses [Carcinogen]: 100 MG/KG BW DEN ONCE THEN 20 MG/KG BW MNU 1/D FOR 4 D FOLLOWED BY 40 MG/KG BW DMH 1/D FOR 4 D, 0.05% BHBN IN DRINKING W, Doses [Promoter]: 0, 2% IN DIET FOR 24 WK BEGINNING 3 D POST CARCINOGEN TREATMENT (STUDY DURATION: 28 WK), Route [Carcinogen]: INTRAPERITONEAL, INTRAPERITONEAL, SUBCUTANEOUS, ORAL, Route [Carcinogen]: INTRAPERITONEAL, INTRAPERITONEAL, SUBCUTANEOUS, ORAL, Route [Promoter]: ORAL, Species: RAT, Strain/Sex: F344/MALE) read?
The outcome was “forestomach: papilloma, squamous cell carcinoma or carcinoma in situ; glandular”.

With `CCCCCCCCCCCCCC` as the compound, how does the outcome (Carcinogen: 7,12-DIMETHYLBENZ(A)ANTHRACENE, Doses [Carcinogen]: TOP, Route [Carcinogen]: DERMAL, Route [Promoter]: DERMAL, Species: MOUSE, Strain/Sex: FEMALE) read?
Its outcome is “integumentary system (skin)”.

What about the outcome (Carcinogen: BENZO(A)PYRENE, Doses [Carcinogen]: TOP, Route [Carcinogen]: DERMAL, Route [Promoter]: DERMAL, Species: MOUSE, Strain/Sex: FEMALE) of the same compound?
The outcome was “integumentary system (skin)”.
